Source: US20150105252A1, “SUBSTITUTED PYRAZOLES AS HERBICIDES” (E I DU PONT DE NEMOURS AND COMPANY, priority 2013, published 2015)

Legend:
[1] = test system: foxtail, giant; assay: Test A postemergence; type: in vivo, Setaria faberii; conditions: Postemergence, 1000 g ai/ha; visual rating after approx. 10 days, 0 to 100 scale (0 no effect, 100 complete control)
Procedure, shortened: (§1)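 Ratings express plant response from 0 (no effect) to 100 (complete control), judged visually against untreated controls after approximately 10 days in the greenhouse. Preemergence applications were made as directed soil sprays onto seeded loam–sand mix, and postemergence applications onto 2–10 cm plants at one- to two-leaf stage.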

[2] = test system: crabgrass, large; assay: Test A preemergence; type: in vivo, Digitaria sanguinalis; conditions: Preemergence, 1000 g ai/ha; 0 to 100 scale, 0 no effect, 100 complete control
Procedure, shortened: as §1

[3] = test system: morningglory; assay: Test A postemergence; type: in vivo, Ipomoea spp.; conditions: Postemergence, 1000 g ai/ha; visual rating after approx. 10 days, 0 to 100 scale (0 no effect, 100 complete control)
Procedure, shortened: as §1

[4] = test system: barnyardgrass; assay: Test C flooded paddy test; type: in vivo, Echinochloa crus-galli; conditions: Flood
Procedure, shortened: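 Pots were flooded to 3 cm above the soil surface at treatment, compound applied directly to the paddy water, and that depth held throughout. Plants were kept in a greenhouse for 13 to 15 days, then visually rated against untreated controls.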

[5] = test system: velvetleaf; assay: Test A preemergence; type: in vivo, Abutilon theophrasti; conditions: Preemergence, 1000 g ai/ha; 0 to 100 scale, 0 no effect, 100 complete control
Procedure, shortened: as §1

[6] = test system: wheat; assay: Test A postemergence; type: in vivo, Triticum aestivum; conditions: Postemergence, 1000 g ai/ha; visual rating after approx. 10 days, 0 to 100 scale (0 no effect, 100 complete control)
Procedure, shortened: as §1

[7] = test system: pigweed; assay: Test A postemergence; type: in vivo, Amaranthus retroflexus; conditions: Postemergence, 1000 g ai/ha; visual rating after approx. 10 days, 0 to 100 scale (0 no effect, 100 complete control)
Procedure, shortened: as §1

[8] = test system: barnyardgrass; assay: Test A preemergence; type: in vivo, Echinochloa crus-galli; conditions: Preemergence, 1000 g ai/ha; 0 to 100 scale, 0 no effect, 100 complete control
Procedure, shortened: as §1

[9] = test system: corn; assay: Test A postemergence; type: in vivo, Zea mays; conditions: Postemergence, 1000 g ai/ha; visual rating after approx. 10 days, 0 to 100 scale (0 no effect, 100 complete control)
Procedure, shortened: as §1

[10] = test system: morningglory; assay: Test A preemergence; type: in vivo, Ipomoea spp.; conditions: Preemergence, 1000 g ai/ha; 0 to 100 scale, 0 no effect, 100 complete control
Procedure, shortened: as §1

[11] = test system: ducksalad; assay: Test C flooded paddy test; type: in vivo, Heteranthera limosa; conditions: Flood
Source text: (§2) At time of treatment, test pots were flooded to 3 cm above the soil surface, treated by application of test compounds directly to the paddy water, and then maintained at that water depth for the duration of the test. Treated plants and controls were maintained in a greenhouse for 13 to 15 days, after which time all species were compared to controls and visually evaluated. […] A dash (-) response means no test result.

[12] = test system: rice; assay: Test C flooded paddy test; type: in vivo, Oryza sativa; conditions: Flood
Source text: as §2

[13] = test system: pigweed; assay: Test A preemergence; type: in vivo, Amaranthus retroflexus; conditions: Preemergence, 1000 g ai/ha; 0 to 100 scale, 0 no effect, 100 complete control
Procedure, shortened: as §1

[14] = test system: corn; assay: Test A preemergence; type: in vivo, Zea mays; conditions: Preemergence, 1000 g ai/ha; 0 to 100 scale, 0 no effect, 100 complete control
Procedure, shortened: as §1

[15] = test system: wheat; assay: Test A preemergence; type: in vivo, Triticum aestivum; conditions: Preemergence, 1000 g ai/ha; 0 to 100 scale, 0 no effect, 100 complete control
Procedure, shortened: as §1

[16] = test system: velvetleaf; assay: Test A postemergence; type: in vivo, Abutilon theophrasti; conditions: Postemergence, 1000 g ai/ha; visual rating after approx. 10 days, 0 to 100 scale (0 no effect, 100 complete control)
Procedure, shortened: as §1

[17] = test system: sedge, umbrella; assay: Test C flooded paddy test; type: in vivo, Cyperus difformis; conditions: Flood
Source text: as §2

[18] = test system: foxtail, giant; assay: Test A preemergence; type: in vivo, Setaria faberii; conditions: Preemergence, 1000 g ai/ha; 0 to 100 scale, 0 no effect, 100 complete control
Procedure, shortened: as §1

[19] = test system: crabgrass, large; assay: Test A postemergence; type: in vivo, Digitaria sanguinalis; conditions: Postemergence, 1000 g ai/ha; visual rating after approx. 10 days, 0 to 100 scale (0 no effect, 100 complete control)
Procedure, shortened: as §1

[20] = test system: barnyardgrass; assay: Test A postemergence; type: in vivo, Echinochloa crus-galli; conditions: Postemergence, 1000 g ai/ha; visual rating after approx. 10 days, 0 to 100 scale (0 no effect, 100 complete control)
Procedure, shortened: as §1

[21] = 31 g ai/ha, scale 0 to 100 (0 no effect, 100 complete control)
[22] = 62 g ai/ha, scale 0 to 100 (0 no effect, 100 complete control)

Compound | Foxtail, Giant plant response rating [1] | Crabgrass, Large plant response rating [2] | Morningglory plant response rating [3] | Plant response rating, Barnyardgrass [4, 21] | Plant response rating, Barnyardgrass [4, 22] | Plant response rating, Barnyardgrass ([4]; 125 g ai/ha, scale 0 to 100) | Plant response rating, Barnyardgrass ([4]; 250 g ai/ha, scale 0 to 100) | Velvetleaf plant response rating [5] | Wheat plant response rating [6] | Pigweed plant response rating [7] | Barnyardgrass plant response rating [8] | Corn plant response rating [9] | Morningglory plant response rating [10] | Plant response rating, Ducksalad [11, 21] | Plant response rating, Ducksalad ([11]; 125 g ai/ha, scale 0 to 100) | Plant response rating, Ducksalad ([11]; 250 g ai/ha, scale 0 to 100) | Plant response rating, Rice [12, 21] | Plant response rating, Rice [12, 22] | Plant response rating, Rice ([12]; 125 g ai/ha, scale 0 to 100) | Plant response rating, Rice ([12]; 250 g ai/ha, scale 0 to 100) | also measured
CCCc1cc(C(=O)NCC)nn1Cc1cccc(C(F)(F)F)c1 [Compound 29] | 90 | 100 | 90 | 0 | 0 | 0 | 20 | 40 | 40 | 100 | 50 | 50 | 60 | 0 | 85 | 85 | 0 | 0 | 0 | 0 | Plant response rating, Ducksalad [11, 22]: 0; Pigweed plant response rating [13]: 90; Corn plant response rating [14]: 0; Wheat plant response rating [15]: 10; Velvetleaf plant response rating [16]: 100; Plant response rating, Sedge, Umbrella [17, 21]: 0; Plant response rating, Sedge, Umbrella [17, 22]: 0; Plant response rating, Sedge, Umbrella ([17]; 125 g ai/ha, scale 0 to 100): 75; Plant response rating, Sedge, Umbrella ([17]; 250 g ai/ha, scale 0 to 100): 80; Foxtail, Giant plant response rating [18]: 80; Crabgrass, Large plant response rating [19]: 70; Barnyardgrass plant response rating [20]: 80
CCCc1cc(C(=O)NC2CC2)nn1Cc1cccc(C(F)(F)F)c1 [Compound 30] | 100 | 100 | 100 | 0 | 0 | 0 | 20 | 30 | 40 | 100 | 90 | 40 | 60 | 60 | 80 | 100 | 0 | 0 | 0 | 0 | Pigweed plant response rating [13]: 30; Corn plant response rating [14]: 20; Wheat plant response rating [15]: 10; Velvetleaf plant response rating [16]: 100; Plant response rating, Sedge, Umbrella [17, 21]: 0; Plant response rating, Sedge, Umbrella [17, 22]: 0; Plant response rating, Sedge, Umbrella ([17]; 125 g ai/ha, scale 0 to 100): 0; Plant response rating, Sedge, Umbrella ([17]; 250 g ai/ha, scale 0 to 100): 80; Foxtail, Giant plant response rating [18]: 100; Crabgrass, Large plant response rating [19]: 90; Barnyardgrass plant response rating [20]: 70
